The residual activity is the signal under treatment as a percentage of the control signal.

Structures are written as SMILES. Values joined by “and” are separate entries in the source; they are usually repeats but may differ in a detail not shown here. Equal values may be shown once.

Chain of BTK (human) (Q06187 whole entry, looked up): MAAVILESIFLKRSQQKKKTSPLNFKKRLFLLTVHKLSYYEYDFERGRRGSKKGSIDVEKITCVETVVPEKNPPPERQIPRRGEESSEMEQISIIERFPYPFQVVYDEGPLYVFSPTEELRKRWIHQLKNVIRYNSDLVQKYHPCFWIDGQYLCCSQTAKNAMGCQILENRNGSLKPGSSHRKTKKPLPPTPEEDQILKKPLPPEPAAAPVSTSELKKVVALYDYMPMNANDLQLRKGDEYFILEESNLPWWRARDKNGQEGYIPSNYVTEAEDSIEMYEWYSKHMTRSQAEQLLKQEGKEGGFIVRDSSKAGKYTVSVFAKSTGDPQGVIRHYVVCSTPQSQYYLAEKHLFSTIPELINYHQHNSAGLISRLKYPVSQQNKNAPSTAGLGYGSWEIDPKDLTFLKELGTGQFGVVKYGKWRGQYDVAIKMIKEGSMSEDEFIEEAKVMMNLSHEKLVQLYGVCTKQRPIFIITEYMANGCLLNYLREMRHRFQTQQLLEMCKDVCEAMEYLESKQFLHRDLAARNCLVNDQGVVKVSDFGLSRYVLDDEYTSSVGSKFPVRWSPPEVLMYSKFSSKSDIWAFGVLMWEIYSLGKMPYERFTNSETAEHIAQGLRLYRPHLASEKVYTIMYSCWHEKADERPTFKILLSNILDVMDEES

The target in one experiment is SIK2 (human) (UniProt Q9H0K1). In words: radiometric filter-binding kinase assay, Kinase HotSpot. Conditions: compound 0.5 µM; ATP 10 µM.
Chain of SIK2 (human) (Q9H0K1 whole entry, looked up): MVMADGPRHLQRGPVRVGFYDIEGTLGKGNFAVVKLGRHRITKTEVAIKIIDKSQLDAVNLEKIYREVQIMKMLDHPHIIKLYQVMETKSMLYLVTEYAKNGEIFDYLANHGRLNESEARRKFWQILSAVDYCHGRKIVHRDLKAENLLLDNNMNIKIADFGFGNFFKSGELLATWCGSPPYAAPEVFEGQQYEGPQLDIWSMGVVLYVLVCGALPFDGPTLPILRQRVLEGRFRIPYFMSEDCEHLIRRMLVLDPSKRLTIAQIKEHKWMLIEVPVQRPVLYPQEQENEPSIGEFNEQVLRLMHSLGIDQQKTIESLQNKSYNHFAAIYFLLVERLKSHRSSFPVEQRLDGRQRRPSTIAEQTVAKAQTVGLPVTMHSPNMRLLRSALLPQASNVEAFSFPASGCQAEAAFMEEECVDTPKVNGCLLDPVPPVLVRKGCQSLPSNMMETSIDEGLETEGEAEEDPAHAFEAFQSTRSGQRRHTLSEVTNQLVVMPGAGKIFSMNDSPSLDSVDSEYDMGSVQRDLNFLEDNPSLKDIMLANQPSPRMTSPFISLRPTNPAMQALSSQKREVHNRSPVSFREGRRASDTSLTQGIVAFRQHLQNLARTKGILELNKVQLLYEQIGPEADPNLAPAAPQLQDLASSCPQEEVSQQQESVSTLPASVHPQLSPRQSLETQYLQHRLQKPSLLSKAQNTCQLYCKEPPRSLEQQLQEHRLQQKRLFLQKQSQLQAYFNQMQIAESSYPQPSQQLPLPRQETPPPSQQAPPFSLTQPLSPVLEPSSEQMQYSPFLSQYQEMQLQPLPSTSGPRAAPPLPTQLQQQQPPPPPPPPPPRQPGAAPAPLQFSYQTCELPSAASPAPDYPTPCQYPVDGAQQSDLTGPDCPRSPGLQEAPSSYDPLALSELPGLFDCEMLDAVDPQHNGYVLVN
For the molecule `O=C1NC(=O)C(c2c[nH]c3ccccc23)=C1c1c[nH]c2ccccc12`, the residual activity was determined as 102%.

Turning to `CN(C)C[C@H]1CCn2c(c(C3=C(c4cn(C)c5ccccc45)C(=O)NC3=O)c3ccccc32)C1`, the residual activity is 88.8%.

Take `Cn1nc2c3c(cccc31)C(=O)c1ccccc1-2`: the residual activity came out at 100%.

For a further experiment, the target named is BMX (human) (UniProt P51813). Described as above. Conditions: compound 0.5 µM; ATP 10 µM.
Chain of BMX (human) (P51813 whole entry, looked up): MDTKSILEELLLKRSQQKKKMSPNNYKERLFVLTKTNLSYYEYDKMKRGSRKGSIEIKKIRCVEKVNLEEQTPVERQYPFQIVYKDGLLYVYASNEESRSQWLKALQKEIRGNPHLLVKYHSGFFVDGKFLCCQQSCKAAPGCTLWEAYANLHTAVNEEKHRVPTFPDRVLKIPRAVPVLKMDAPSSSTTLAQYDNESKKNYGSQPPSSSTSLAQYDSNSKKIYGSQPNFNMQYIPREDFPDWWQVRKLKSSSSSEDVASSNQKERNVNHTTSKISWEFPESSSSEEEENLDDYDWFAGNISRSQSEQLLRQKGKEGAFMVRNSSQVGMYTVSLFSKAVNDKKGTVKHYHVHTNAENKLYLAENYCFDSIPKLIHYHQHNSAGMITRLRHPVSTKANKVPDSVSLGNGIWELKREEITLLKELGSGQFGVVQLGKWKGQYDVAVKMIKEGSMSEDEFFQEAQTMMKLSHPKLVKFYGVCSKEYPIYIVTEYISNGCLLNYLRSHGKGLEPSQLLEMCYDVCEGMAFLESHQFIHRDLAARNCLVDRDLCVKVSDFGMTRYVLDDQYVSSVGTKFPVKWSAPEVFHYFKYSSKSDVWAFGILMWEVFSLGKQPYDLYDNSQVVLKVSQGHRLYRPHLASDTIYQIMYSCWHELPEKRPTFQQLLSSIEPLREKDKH
In the case of `O=C1NC(=O)C(c2c[nH]c3ccccc23)=C1c1c[nH]c2ccccc12`, the residual activity turned out to be 100%.

In the case of `CN(C)C[C@H]1CCn2c(c(C3=C(c4cn(C)c5ccccc45)C(=O)NC3=O)c3ccccc32)C1`, the residual activity worked out at 91.7%.

Consider `Cn1nc2c3c(cccc31)C(=O)c1ccccc1-2`, for which the residual activity was 101%.

Another experiment deals with AURKC (human) (UniProt Q9UQB9). Described as above. The following applies: compound 0.5 µM; ATP 10 µM.
Chain of AURKC (human) (Q9UQB9 whole entry, looked up): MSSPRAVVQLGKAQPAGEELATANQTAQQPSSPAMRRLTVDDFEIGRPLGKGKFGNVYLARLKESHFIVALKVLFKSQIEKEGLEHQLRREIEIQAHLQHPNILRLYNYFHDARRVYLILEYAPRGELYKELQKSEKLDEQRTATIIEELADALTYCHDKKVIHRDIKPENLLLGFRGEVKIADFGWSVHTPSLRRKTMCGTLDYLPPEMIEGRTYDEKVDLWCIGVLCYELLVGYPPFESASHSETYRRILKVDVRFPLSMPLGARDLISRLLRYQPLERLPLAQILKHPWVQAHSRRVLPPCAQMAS
For the molecule `O=C1NC(=O)C(c2c[nH]c3ccccc23)=C1c1c[nH]c2ccccc12`, the residual activity was found to be 101%.

Take `CN(C)C[C@H]1CCn2c(c(C3=C(c4cn(C)c5ccccc45)C(=O)NC3=O)c3ccccc32)C1`: the residual activity stood at 93.1%.

Take `Cn1nc2c3c(cccc31)C(=O)c1ccccc1-2`: the residual activity turned out to be 89.3%.

The target in a further experiment is MAP4K2 (human) (UniProt Q12851). The description is as above. The following applies: compound 0.5 µM; ATP 10 µM.
Take `O=C1NC(=O)C(c2c[nH]c3ccccc23)=C1c1c[nH]c2ccccc12`: the residual activity was 84.9%.

`CN(C)C[C@H]1CCn2c(c(C3=C(c4cn(C)c5ccccc45)C(=O)NC3=O)c3ccccc32)C1`: the residual activity turned out to be 99%.

On to `Cn1nc2c3c(cccc31)C(=O)c1ccccc1-2`, for which the residual activity was determined as 75.4%.

The target of a further experiment is PKN1 (human) (UniProt Q16512). Described as above. Conditions: compound 0.5 µM; ATP 10 µM.
`O=C1NC(=O)C(c2c[nH]c3ccccc23)=C1c1c[nH]c2ccccc12`: the residual activity was determined as 84.6%.

With `CN(C)C[C@H]1CCn2c(c(C3=C(c4cn(C)c5ccccc45)C(=O)NC3=O)c3ccccc32)C1`, the residual activity came to 7.06%.

`Cn1nc2c3c(cccc31)C(=O)c1ccccc1-2`: the residual activity worked out at 101%.

For another experiment, the target named is MAPK9 (human) (UniProt P45984). Described as above. The following applies: compound 0.5 µM; ATP 10 µM.
Turning to `O=C1NC(=O)C(c2c[nH]c3ccccc23)=C1c1c[nH]c2ccccc12`, the residual activity amounted to 95.4%.

Turning to `CN(C)C[C@H]1CCn2c(c(C3=C(c4cn(C)c5ccccc45)C(=O)NC3=O)c3ccccc32)C1`, the residual activity came out at 105%.

Take `Cn1nc2c3c(cccc31)C(=O)c1ccccc1-2`: the residual activity was 85.2%.

The target of a further experiment is CSNK2A1 (human) (UniProt P68400). Described as above. The following applies: compound 0.5 µM; ATP 10 µM.
As for `O=C1NC(=O)C(c2c[nH]c3ccccc23)=C1c1c[nH]c2ccccc12`, the residual activity came to 106%.

Turning to `CN(C)C[C@H]1CCn2c(c(C3=C(c4cn(C)c5ccccc45)C(=O)NC3=O)c3ccccc32)C1`, the residual activity was 98.9%.

Turning to `Cn1nc2c3c(cccc31)C(=O)c1ccccc1-2`, the residual activity came to 90.2%.

The target in the next experiment is DYRK4 (human) (UniProt Q9NR20). Described as above. Conditions: compound 0.5 µM; ATP 10 µM.
Chain of DYRK4 (human) (Q9NR20 whole entry, looked up): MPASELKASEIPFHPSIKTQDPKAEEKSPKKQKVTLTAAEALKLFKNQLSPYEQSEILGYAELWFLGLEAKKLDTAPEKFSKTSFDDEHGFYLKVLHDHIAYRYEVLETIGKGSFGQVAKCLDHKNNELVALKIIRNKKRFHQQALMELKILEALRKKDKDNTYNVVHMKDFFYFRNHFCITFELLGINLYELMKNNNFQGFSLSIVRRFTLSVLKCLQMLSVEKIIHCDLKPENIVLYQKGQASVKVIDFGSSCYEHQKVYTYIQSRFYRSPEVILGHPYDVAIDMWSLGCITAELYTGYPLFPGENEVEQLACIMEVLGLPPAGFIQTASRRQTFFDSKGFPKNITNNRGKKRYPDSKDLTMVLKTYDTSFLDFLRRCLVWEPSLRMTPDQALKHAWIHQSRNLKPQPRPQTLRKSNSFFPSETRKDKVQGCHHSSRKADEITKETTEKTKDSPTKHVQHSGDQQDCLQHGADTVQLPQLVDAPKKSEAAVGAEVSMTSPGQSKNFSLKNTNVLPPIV
As for `O=C1NC(=O)C(c2c[nH]c3ccccc23)=C1c1c[nH]c2ccccc12`, the residual activity was 94.3%.

Consider `CN(C)C[C@H]1CCn2c(c(C3=C(c4cn(C)c5ccccc45)C(=O)NC3=O)c3ccccc32)C1`, for which the residual activity stood at 98.9%.

Take `Cn1nc2c3c(cccc31)C(=O)c1ccccc1-2`: the residual activity was 91.2%.

The next experiment addresses CSNK2A2 (human) (UniProt P19784). The experiment is described as above. Conditions: compound 0.5 µM; ATP 10 µM.
`O=C1NC(=O)C(c2c[nH]c3ccccc23)=C1c1c[nH]c2ccccc12`: the residual activity worked out at 92%.

Consider `CN(C)C[C@H]1CCn2c(c(C3=C(c4cn(C)c5ccccc45)C(=O)NC3=O)c3ccccc32)C1`, for which the residual activity worked out at 92.4%.

Regarding `Cn1nc2c3c(cccc31)C(=O)c1ccccc1-2`, the residual activity was 86.6%.

The target of a further experiment is LYN (human) (UniProt P07948). The description is as above. Conditions: compound 0.5 µM; ATP 10 µM.
On to `O=C1NC(=O)C(c2c[nH]c3ccccc23)=C1c1c[nH]c2ccccc12`, for which the residual activity is 102% and 104%.

On to `CN(C)C[C@H]1CCn2c(c(C3=C(c4cn(C)c5ccccc45)C(=O)NC3=O)c3ccccc32)C1`, for which the residual activity is 100% and 98.3%.

Take `Cn1nc2c3c(cccc31)C(=O)c1ccccc1-2`: the residual activity was 96.1% and 97.7%.

A further experiment has as its target ROCK2 (human) (UniProt O75116). Described as above. The following applies: compound 0.5 µM; ATP 10 µM.
As for `O=C1NC(=O)C(c2c[nH]c3ccccc23)=C1c1c[nH]c2ccccc12`, the residual activity was determined as 89.2%.

For `CN(C)C[C@H]1CCn2c(c(C3=C(c4cn(C)c5ccccc45)C(=O)NC3=O)c3ccccc32)C1`, the residual activity is 98.9%.

For `Cn1nc2c3c(cccc31)C(=O)c1ccccc1-2`, the residual activity is 92.3%.

A further experiment deals with LTK (human) (UniProt P29376). The experiment is described as above. Conditions: compound 0.5 µM; ATP 10 µM.
Chain of LTK (human) (P29376 whole entry, looked up): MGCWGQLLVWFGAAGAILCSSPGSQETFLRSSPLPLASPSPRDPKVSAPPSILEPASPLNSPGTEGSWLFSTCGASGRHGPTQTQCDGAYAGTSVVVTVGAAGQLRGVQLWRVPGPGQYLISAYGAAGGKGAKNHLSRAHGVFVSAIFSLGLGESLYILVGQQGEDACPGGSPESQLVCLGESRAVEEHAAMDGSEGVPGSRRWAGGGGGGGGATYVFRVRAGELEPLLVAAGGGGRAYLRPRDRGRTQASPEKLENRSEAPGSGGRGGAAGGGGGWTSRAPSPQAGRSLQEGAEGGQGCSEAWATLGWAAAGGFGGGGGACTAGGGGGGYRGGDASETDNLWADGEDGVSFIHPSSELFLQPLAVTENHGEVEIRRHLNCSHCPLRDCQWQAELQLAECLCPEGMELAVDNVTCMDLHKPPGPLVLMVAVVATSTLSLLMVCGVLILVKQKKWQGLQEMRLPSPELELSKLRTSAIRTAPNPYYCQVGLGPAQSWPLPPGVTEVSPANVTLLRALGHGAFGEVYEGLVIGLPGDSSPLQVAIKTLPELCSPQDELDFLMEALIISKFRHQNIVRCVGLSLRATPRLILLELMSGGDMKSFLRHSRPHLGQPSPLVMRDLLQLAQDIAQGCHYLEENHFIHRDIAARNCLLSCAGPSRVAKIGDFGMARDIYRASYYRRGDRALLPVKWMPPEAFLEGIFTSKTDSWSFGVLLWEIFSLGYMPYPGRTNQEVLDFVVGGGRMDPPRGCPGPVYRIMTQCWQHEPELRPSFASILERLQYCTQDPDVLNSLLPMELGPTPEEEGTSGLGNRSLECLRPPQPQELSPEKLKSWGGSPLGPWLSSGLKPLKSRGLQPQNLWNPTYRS
Turning to `O=C1NC(=O)C(c2c[nH]c3ccccc23)=C1c1c[nH]c2ccccc12`, the residual activity turned out to be 85.1%.

Consider `CN(C)C[C@H]1CCn2c(c(C3=C(c4cn(C)c5ccccc45)C(=O)NC3=O)c3ccccc32)C1`, for which the residual activity is 101%.

Turning to `Cn1nc2c3c(cccc31)C(=O)c1ccccc1-2`, the residual activity came out at 86.7%.

The target of the next experiment is EPHA1 (human) (UniProt P21709). Described as above. Conditions: compound 0.5 µM; ATP 10 µM.
Take `O=C1NC(=O)C(c2c[nH]c3ccccc23)=C1c1c[nH]c2ccccc12`: the residual activity amounted to 92.1%.

For the molecule `CN(C)C[C@H]1CCn2c(c(C3=C(c4cn(C)c5ccccc45)C(=O)NC3=O)c3ccccc32)C1`, the residual activity was determined as 100%.

As for `Cn1nc2c3c(cccc31)C(=O)c1ccccc1-2`, the residual activity came out at 94.8%.

A further experiment has as its target BTK (human) (UniProt Q06187). The experiment is described as above. Conditions: compound 0.5 µM; ATP 10 µM.
On to `O=C1NC(=O)C(c2c[nH]c3ccccc23)=C1c1c[nH]c2ccccc12`, for which the residual activity came out at 98.2%.

On to `CN(C)C[C@H]1CCn2c(c(C3=C(c4cn(C)c5ccccc45)C(=O)NC3=O)c3ccccc32)C1`, for which the residual activity turned out to be 103%.

Regarding `Cn1nc2c3c(cccc31)C(=O)c1ccccc1-2`, the residual activity is 89.5%.

The next experiment has as its target STK24 (human) (UniProt Q9Y6E0). The description is as above. The following applies: compound 0.5 µM; ATP 10 µM.
In the case of `O=C1NC(=O)C(c2c[nH]c3ccccc23)=C1c1c[nH]c2ccccc12`, the residual activity was 61.5%.

On to `CN(C)C[C@H]1CCn2c(c(C3=C(c4cn(C)c5ccccc45)C(=O)NC3=O)c3ccccc32)C1`, for which the residual activity worked out at 66.5%.

Consider `Cn1nc2c3c(cccc31)C(=O)c1ccccc1-2`, for which the residual activity is 98.6%.

Another experiment concerns the target GRK7 (human) (UniProt Q8WTQ7). The experiment is described as above. The following applies: compound 0.5 µM; ATP 10 µM.
As for `O=C1NC(=O)C(c2c[nH]c3ccccc23)=C1c1c[nH]c2ccccc12`, the residual activity worked out at 91.8%.

As for `CN(C)C[C@H]1CCn2c(c(C3=C(c4cn(C)c5ccccc45)C(=O)NC3=O)c3ccccc32)C1`, the residual activity was 40%.

As for `Cn1nc2c3c(cccc31)C(=O)c1ccccc1-2`, the residual activity was 113%.

The target of another experiment is CDK9 CCNT1 (human) (UniProt P50750+O60563). Described as above. Conditions: compound 0.5 µM; ATP 10 µM.
Chain of CDK9 CCNT1 (human) (O60563 whole entry, looked up): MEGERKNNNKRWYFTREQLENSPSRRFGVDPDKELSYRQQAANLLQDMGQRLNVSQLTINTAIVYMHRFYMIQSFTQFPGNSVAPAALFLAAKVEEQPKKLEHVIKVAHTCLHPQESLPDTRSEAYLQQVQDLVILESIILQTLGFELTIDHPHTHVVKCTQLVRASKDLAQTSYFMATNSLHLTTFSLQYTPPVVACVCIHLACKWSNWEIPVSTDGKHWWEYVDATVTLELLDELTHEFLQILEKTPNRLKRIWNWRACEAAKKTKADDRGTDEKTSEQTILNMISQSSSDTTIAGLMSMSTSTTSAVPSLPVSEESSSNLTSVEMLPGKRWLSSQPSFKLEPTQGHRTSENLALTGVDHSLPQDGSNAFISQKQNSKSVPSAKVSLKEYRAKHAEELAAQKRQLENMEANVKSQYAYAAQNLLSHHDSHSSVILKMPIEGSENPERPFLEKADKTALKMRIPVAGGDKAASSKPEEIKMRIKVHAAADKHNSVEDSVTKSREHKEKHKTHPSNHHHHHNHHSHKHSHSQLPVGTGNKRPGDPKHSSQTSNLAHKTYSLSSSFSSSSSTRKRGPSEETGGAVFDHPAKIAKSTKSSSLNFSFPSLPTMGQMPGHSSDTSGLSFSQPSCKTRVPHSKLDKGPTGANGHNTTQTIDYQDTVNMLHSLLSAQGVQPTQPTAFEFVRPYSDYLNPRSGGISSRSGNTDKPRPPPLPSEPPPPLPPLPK
Chain of CDK9 CCNT1 (human) (P50750 whole entry, looked up): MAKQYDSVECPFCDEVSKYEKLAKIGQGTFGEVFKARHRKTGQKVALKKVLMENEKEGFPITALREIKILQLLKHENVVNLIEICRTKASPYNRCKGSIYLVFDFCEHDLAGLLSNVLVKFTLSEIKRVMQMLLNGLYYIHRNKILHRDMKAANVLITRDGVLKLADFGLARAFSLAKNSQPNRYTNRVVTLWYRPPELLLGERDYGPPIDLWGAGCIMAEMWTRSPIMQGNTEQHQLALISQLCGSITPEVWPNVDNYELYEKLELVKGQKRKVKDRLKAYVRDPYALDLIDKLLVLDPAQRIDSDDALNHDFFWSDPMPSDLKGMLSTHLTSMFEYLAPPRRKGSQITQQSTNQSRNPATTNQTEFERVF
`O=C1NC(=O)C(c2c[nH]c3ccccc23)=C1c1c[nH]c2ccccc12`: the residual activity was found to be 89.9%.

Consider `CN(C)C[C@H]1CCn2c(c(C3=C(c4cn(C)c5ccccc45)C(=O)NC3=O)c3ccccc32)C1`, for which the residual activity was 39.6%.

In the case of `Cn1nc2c3c(cccc31)C(=O)c1ccccc1-2`, the residual activity was found to be 94.7%.

The target in the next experiment is GRK6 (human) (UniProt P43250). The experiment is described as above. Conditions: compound 0.5 µM; ATP 10 µM.
`O=C1NC(=O)C(c2c[nH]c3ccccc23)=C1c1c[nH]c2ccccc12`: the residual activity was determined as 101%.

As for `CN(C)C[C@H]1CCn2c(c(C3=C(c4cn(C)c5ccccc45)C(=O)NC3=O)c3ccccc32)C1`, the residual activity is 66.4%.

As to `Cn1nc2c3c(cccc31)C(=O)c1ccccc1-2`, the residual activity was 89.2%.

Another experiment concerns the target MAP4K5 (human) (UniProt Q9Y4K4). Described as above. The following applies: compound 0.5 µM; ATP 10 µM.
As to `O=C1NC(=O)C(c2c[nH]c3ccccc23)=C1c1c[nH]c2ccccc12`, the residual activity is 87.1%.

With `CN(C)C[C@H]1CCn2c(c(C3=C(c4cn(C)c5ccccc45)C(=O)NC3=O)c3ccccc32)C1`, the residual activity came out at 99.9%.

Regarding `Cn1nc2c3c(cccc31)C(=O)c1ccccc1-2`, the residual activity was 86%.

The target in another experiment is TGFBR2 (human) (UniProt P37173). The experiment is described as above. The following applies: compound 0.5 µM; ATP 10 µM.
As to `O=C1NC(=O)C(c2c[nH]c3ccccc23)=C1c1c[nH]c2ccccc12`, the residual activity turned out to be 95.5%.

In the case of `CN(C)C[C@H]1CCn2c(c(C3=C(c4cn(C)c5ccccc45)C(=O)NC3=O)c3ccccc32)C1`, the residual activity was 98.5%.

For `Cn1nc2c3c(cccc31)C(=O)c1ccccc1-2`, the residual activity was 94.9%.

In a further experiment the target is TYRO3 (human) (UniProt Q06418). The experiment is described as above. The following applies: compound 0.5 µM; ATP 10 µM.
Turning to `O=C1NC(=O)C(c2c[nH]c3ccccc23)=C1c1c[nH]c2ccccc12`, the residual activity turned out to be 101%.

Turning to `CN(C)C[C@H]1CCn2c(c(C3=C(c4cn(C)c5ccccc45)C(=O)NC3=O)c3ccccc32)C1`, the residual activity amounted to 99.3%.

Regarding `Cn1nc2c3c(cccc31)C(=O)c1ccccc1-2`, the residual activity came out at 99.8%.

These data come from the kinase profiling compilation of Christmann-Franck et al. (2016).
